The results in this text go back to patent US9850283B2, “Macrocyclic inhibitors of the PD-1/PD-L1 and CD80(B7-1)/PD-L1 protein/protein interactions” (BRISTOL-MYERS SQUIBB COMPANY, priority 2013, dated 2017).

In experiment [1] the target is T1, Human PD-L1/PD-1 (Homo sapiens, UniProt Q9NZQ7).
T1 construct: made in house; host or cells: HEK293T
Briefly: HTRF PD-1-Ig/PD-L1-His binding assay (human PD-L1). The note with it: cluster symbol; read-out: HTRF IC50 cluster. The gist of the method:
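Soluble PD-1-Ig binding to PD-L1-His measured by HTRF in dPBS with 0.1% BSA and 0.05% Tween-20. Detection used europium cryptate anti-Ig antibody (1 nM final) and APC anti-His antibody (20 nM final) added on top of the binding reaction.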

The target of experiment [2] is T2, LK35.2-hPD-L1 cells / PE-labeled PD-1-Ig (Homo sapiens, UniProt Q9NZQ7).
T2 construct: expressed in transfected cells; host or cells: LK35.2 mouse B cell line
T2 sequence (Q9NZQ7 19-290): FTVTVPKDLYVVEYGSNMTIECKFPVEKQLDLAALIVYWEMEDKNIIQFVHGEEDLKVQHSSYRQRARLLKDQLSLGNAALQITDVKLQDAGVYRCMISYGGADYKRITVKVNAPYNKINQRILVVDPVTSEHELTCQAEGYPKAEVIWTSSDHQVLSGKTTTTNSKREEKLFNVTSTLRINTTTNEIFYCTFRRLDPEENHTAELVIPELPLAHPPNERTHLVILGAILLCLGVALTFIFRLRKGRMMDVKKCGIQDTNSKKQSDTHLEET
Briefly: LK35.2-hPD-L1 cell binding high-content screening assay. The class given is cell-based. The note with it: cluster symbol, read-out: CBA IC50 cluster. The gist of the method: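 Mouse LK35.2 B cells stably over-expressing human PD-L1, cultured overnight, treated with compound plus PE-labeled human PD-1-Ig (1 nM final) in RPMI/10% FCS for 1 h at 37 °C. After washing, bound fluorescence quantified by high-content imaging.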

The mark [3] stands for this setting: cell line of CBA not given (LK35.2-hPD-L1 or 293T-hPD-L1).
The mark [4] stands for this setting: cell binding assay, cell line not given.

Read-outs that look alike come from different tables or passages of the source. Starred links: 1 amine or outer side, 2 acyl side, 3 side chain; linkers in the order of their positions; H or OH if unused. Positions of bridges follow the written chain, without caps; N, C: chain ends. Non-standard residues stand in square brackets, D forms with d. Residues, ends and D or L forms follow the SMILES beside them. ξ: configuration not given here. ξPro(4S-NH2) = O=C(C1C[C@H](N[*:3])CN1[*:1])[*:2]; Phe(2-Cl) = N[C@@H](Cc1ccccc1Cl)C(=O)O; 1Nal = N[C@@H](Cc1cccc2ccccc12)C(=O)O; Phe(2-Me) = Cc1ccccc1C[C@H](N)C(=O)O; Bta = N[C@@H](Cc1csc2ccccc12)C(=O)O; Hyp = O=C(O)[C@@H]1C[C@@H](O)CN1; NMeF = CN[C@@H](Cc1ccccc1)C(=O)O; ξBta = NC(Cc1csc2ccccc12)C(=O)O; NMeNle = CCCC[C@H](NC)C(=O)O; Pip = O=C(O)[C@@H]1CCCCN1; NMeA = CN[C@@H](C)C(=O)O; Dab = NCC[C@H](N)C(=O)O; ξC = NC(CS)C(=O)O; Sar = CNCC(=O)O A value given as a limit tells only on which side of the number the result lay.

T1 sequence (Q9NZQ7 with tags, fused parts or gaps): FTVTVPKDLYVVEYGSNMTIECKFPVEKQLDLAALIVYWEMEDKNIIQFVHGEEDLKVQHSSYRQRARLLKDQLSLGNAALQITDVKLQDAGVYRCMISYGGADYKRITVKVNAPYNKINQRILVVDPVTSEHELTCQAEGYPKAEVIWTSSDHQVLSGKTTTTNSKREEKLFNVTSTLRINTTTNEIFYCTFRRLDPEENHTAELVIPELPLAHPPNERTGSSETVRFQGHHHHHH

With `CCCC[C@H]1C(=O)N(C)CC(=O)N[C@@H](CC(=O)O)C(=O)N[C@@H](C(C)C)C(=O)N(C)[C@@H](Cc2ccccc2)C(=O)N[C@@H](Cc2ccc(O)cc2)C(=O)N(C)CC(=O)N[C@@H](Cc2c[nH]c3ccccc23)C(=O)N[C@@H](Cc2ccc(O)cc2)C(=O)N[C@@H](CC(C)C)C(=O)N[C@H](C(=O)NCC(N)=O)CSCC(=O)N[C@@H](Cc2ccc(OC)cc2)C(=O)N(C)[C@@H](Cc2ccccc2)C(=O)N1C` [Example 3089] ({CH2CO}-Y(Me)[NMeF][NMeNle][Sar]DV[NMeF]Y[Sar]WYLCG-NH2; thioether N-13), the IC50 in experiment [1] is over 0.0305 µM; in experiment [2] (setting [3]), over 0.0743 µM.

Regarding `CCCC[C@H]1C(=O)N(C)CC(=O)N[C@@H](CC(=O)O)C(=O)N[C@@H](C(C)C)C(=O)N(C)[C@@H](Cc2ccccc2)C(=O)N[C@@H](Cc2ccc(O)cc2)C(=O)N(C)CC(=O)N[C@@H](Cc2c[nH]c3ccccc23)C(=O)N[C@@H](Cc2c[nH]c3ccccc23)C(=O)N[C@@H](CC(C)C)C(=O)N[C@H](C(=O)NCC(N)=O)CSCC(=O)N[C@@H](Cc2ccccc2)C(=O)N(C)[C@@H](Cc2ccccc2)C(=O)N1C` [Example 3539] (HELM PEPTIDE1{[O=C(C[*:3])[*:2]].F.[meF].[CCCC[C@@H](C(=O)[*:2])N(C)[*:1]].[Sar].D.V.[meF].Y.[Sar].W.W.L.C.G.[am]}$PEPTIDE1,PEPTIDE1,1:R3-14:R3$$$V2.0), the values for the IC50 in experiment [1] and in experiment [2] (setting [4]) were over 0.0305 µM and over 0.0743 µM, respectively.

Take `CCCC[C@H]1C(=O)N(C)CC(=O)N[C@@H](CC(=O)O)C(=O)N[C@@H](C(C)C)C(=O)N(C)[C@@H](Cc2ccccc2)C(=O)N[C@@H](Cc2ccc(O)cc2)C(=O)N(C)CC(=O)N[C@@H](Cc2c[nH]c3ccccc23)C(=O)N[C@@H](Cc2ccc(O)cc2)C(=O)N[C@@H](CCCN)C(=O)N[C@H](C(=O)NCC(N)=O)CSCC(=O)N[C@@H](Cc2ccccc2)C(=O)N(C)[C@@H](Cc2ccccc2)C(=O)N1C` [Example 3163] (HELM PEPTIDE1{[O=C(C[*:3])[*:2]].F.[meF].[CCCC[C@@H](C(=O)[*:2])N(C)[*:1]].[Sar].D.V.[meF].Y.[Sar].W.Y.[Orn].C.G.[am]}$PEPTIDE1,PEPTIDE1,1:R3-14:R3$$$V2.0): the figures for the 50% inhibitory concentration (IC50) in experiment [1] and in experiment [2] (setting [3]) were 0.00676 to 0.0303 µM and 0.00478 to 0.0729 µM, respectively.

With `CCCC[C@H]1C(=O)N(C)[C@@H](CCCC)C(=O)N[C@@H](CC(C)C)C(=O)N[C@H](C(=O)NCC(N)=O)CSCC(=O)N[C@@H](Cc2ccc(O)cc2)C(=O)N(C)[C@@H](C)C(=O)N[C@@H](CC(N)=O)C(=O)N2CCC[C@H]2C(=O)N[C@@H](Cc2c[nH]cn2)C(=O)N[C@@H](CCC(=O)O)C(=O)N2C[C@H](O)C[C@H]2C(=O)N[C@@H](Cc2c[nH]c3ccccc23)C(=O)N[C@@H](CO)C(=O)N[C@@H](Cc2c[nH]c3ccccc23)C(=O)N1C` [Example 5003] ({CH2CO}-Y[NMeA]NPHE[Hyp]WSW[NMeNle][NMeNle]LCG-NH2; thioether N-14), the IC50 lay in the range of 0.00676 to 0.0303 µM in experiment [1] and 0.000158 to 0.00471 µM in experiment [2] (setting [4]).

Regarding `CCCC[C@H]1C(=O)N(C)CC(=O)N[C@@H](CC(=O)O)C(=O)N[C@@H](C(C)C)C(=O)N(C)[C@@H](Cc2ccccc2)C(=O)N[C@@H](Cc2ccc(O)cc2)C(=O)N(C)CC(=O)N[C@@H](Cc2c[nH]c3ccccc23)C(=O)N[C@@H](Cc2ccc(O)cc2)C(=O)N[C@@H](CC(C)C)C(=O)N[C@H](C(=O)NCC(N)=O)CSCC(=O)N[C@@H](Cc2ccccc2Cl)C(=O)N(C)[C@@H](Cc2ccccc2)C(=O)N1C` [Example 3104] ({CH2CO}-[Phe(2-Cl)][NMeF][NMeNle][Sar]DV[NMeF]Y[Sar]WYLCG-NH2; thioether N-13), the IC50 in experiment [1] is over 0.0305 µM; in experiment [2] (setting [3]) it was over 0.0743 µM.

For the compound `CCCC[C@H]1C(=O)N(C)[C@@H](CCCC)C(=O)N[C@@H](CCCNC(=N)N)C(=O)N[C@H](C(=O)NCC(N)=O)CSCC(=O)N[C@@H](Cc2ccccc2)C(=O)N(C)[C@@H](C)C(=O)N[C@@H](CC(N)=O)C(=O)N2CCC[C@H]2C(=O)N[C@@H](Cc2cnc[nH]2)C(=O)N[C@@H](CC(C)C)C(=O)N(C)CC(=O)N[C@@H](Cc2c[nH]c3ccccc23)C(=O)N[C@H](CO)C(=O)N[C@@H](Cc2c[nH]c3ccccc23)C(=O)N1C` [Example 1065] ({CH2CO}-F[NMeA]NPHL[Sar]W[dS]W[NMeNle][NMeNle]RCG-NH2; thioether N-14), the IC50 was over 0.0305 µM in experiment [1] and over 0.0743 µM in experiment [2] (setting [3]).

Turning to `CCCC[C@H]1C(=O)N(C)CC(=O)N[C@@H](CC(=O)O)C(=O)N[C@@H](C(C)C)C(=O)N(C)[C@@H](Cc2ccccc2)C(=O)N[C@@H](Cc2ccc(O)cc2)C(=O)N(C)CC(=O)N[C@@H](Cc2c[nH]c3ccccc23)C(=O)N[C@@H](Cc2ccc(O)cc2)C(=O)N[C@@H](CCN)C(=O)N[C@H](C(=O)NCC(N)=O)CSCC(=O)N[C@@H](Cc2ccccc2)C(=O)N(C)[C@@H](Cc2ccccc2)C(=O)N1C` [Example 3162] (HELM PEPTIDE1{[O=C(C[*:3])[*:2]].F.[meF].[CCCC[C@@H](C(=O)[*:2])N(C)[*:1]].[Sar].D.V.[meF].Y.[Sar].W.Y.[Dab].C.G.[am]}$PEPTIDE1,PEPTIDE1,1:R3-14:R3$$$V2.0), the IC50 in experiment [1] lay within 0.00676 to 0.0303 µM; in experiment [2] (setting [3]), 0.00478 to 0.0729 µM.

For `CCCC[C@H]1C(=O)N(C)[C@@H](CCCC)C(=O)N[C@@H](CCCNC(=N)N)C(=O)NC(C(=O)NCC(N)=O)CSCC(=O)N[C@@H](Cc2ccc(O)cc2)C(=O)N(C)[C@@H](C)C(=O)N[C@@H](CC(N)=O)C(=O)N2CCC[C@H]2C(=O)N[C@@H](CO)C(=O)N[C@@H](CC(C)C)C(=O)N2C[C@H](O)C[C@H]2C(=O)N[C@@H](Cc2c[nH]c3ccccc23)C(=O)N[C@@H](CO)C(=O)N[C@@H](Cc2csc3ccccc23)C(=O)N1C` (some centres unmarked) [Example 9071] ({CH2CO}-Y[NMeA]NPSL[Hyp]WS[Bta][NMeNle][NMeNle]R[ξC]G-NH2; thioether N-14), the values for the IC50 in experiment [1] and in experiment [2] (setting [4]) were 0.000385 to 0.00674 µM and 0.000158 to 0.00471 µM, respectively.

In the case of `CCCC[C@H]1C(=O)N(C)[C@@H](CCCC)C(=O)N[C@@H](CCCNC(=N)N)C(=O)N[C@H](C(=O)NCC(N)=O)CSCC(=O)N[C@@H](Cc2ccccc2)C(=O)N(C)[C@@H](C)C(=O)N[C@@H](CC(N)=O)C(=O)N2CCC[C@H]2C(=O)N[C@@H](Cc2cnc[nH]2)C(=O)N[C@@H](CC(C)C)C(=O)N2CCCC[C@H]2C(=O)N[C@@H](Cc2c[nH]c3ccccc23)C(=O)N[C@@H](CO)C(=O)N[C@@H](Cc2c[nH]c3ccccc23)C(=O)N1C` [Example 1196] ({CH2CO}-F[NMeA]NPHL[Pip]WSW[NMeNle][NMeNle]RCG-NH2; thioether N-14), the IC50 in experiment [1] is over 0.0305 µM; in experiment [2] (setting [3]), 0.00478 to 0.0729 µM.

`CCCC[C@H]1C(=O)N(C)[C@@H](CCCC)C(=O)N[C@@H](CCCNC(=N)N)C(=O)N[C@H](C(=O)NCC(N)=O)CSCC(=O)N[C@@H](Cc2ccc(O)cc2)C(=O)N(C)[C@@H](C)C(=O)N[C@@H](CC(N)=O)C(=O)N2C[C@@H](N)CC2C(=O)N[C@@H](Cc2cnc[nH]2)C(=O)N[C@@H](CC(C)C)C(=O)N2CCC[C@H]2C(=O)N[C@@H](Cc2c[nH]c3ccccc23)C(=O)N[C@@H](CO)C(=O)NC(Cc2csc3ccccc23)C(=O)N1C` (stereo partly drawn) [Example 1046] ({CH2CO}-Y[NMeA]N[ξPro(4S-NH2)]HLPWS[ξBta][NMeNle][NMeNle]RCG-NH2; thioether N-14): the IC50 was in the range of 0.00676 to 0.0303 µM in experiment [1] and 0.00478 to 0.0729 µM in experiment [2] (setting [3]).

Turning to `CCCC[C@H]1C(=O)N(C)CC(=O)N[C@@H](CC(=O)O)C(=O)N[C@@H](C(C)C)C(=O)N(C)[C@@H](Cc2ccccc2)C(=O)N[C@@H](Cc2ccc(O)cc2)C(=O)N(C)CC(=O)N[C@@H](Cc2c[nH]c3ccccc23)C(=O)N[C@@H](Cc2ccc(O)cc2)C(=O)N[C@@H](CC(C)C)C(=O)N[C@H](C(=O)NCC(N)=O)CSCC(=O)N[C@@H](Cc2ccccc2)C(=O)N[C@@H](Cc2cccc3ccccc23)C(=O)N1C` [Example 3569] ({CH2CO}-F[1Nal][NMeNle][Sar]DV[NMeF]Y[Sar]WYLCG-NH2; thioether N-13), the IC50 in experiment [1] was over 0.0305 µM; in experiment [2] (setting [4]) it was over 0.0743 µM.

Turning to `CCCC[C@H]1C(=O)N(C)[C@@H](CCCC)C(=O)N[C@@H](CCN)C(=O)N[C@H](C(=O)NCC(N)=O)CSCC(=O)N[C@@H](Cc2ccc(O)cc2)C(=O)N(C)[C@@H](C)C(=O)N[C@@H](CC(N)=O)C(=O)N2CCC[C@H]2C(=O)N[C@@H](Cc2cnc[nH]2)C(=O)N[C@@H](CCC(=O)O)C(=O)N2C[C@H](O)C[C@H]2C(=O)N[C@@H](Cc2csc3ccccc23)C(=O)N[C@@H](C)C(=O)N[C@@H](Cc2c[nH]c3ccccc23)C(=O)N1C` [Example 5053] ({CH2CO}-Y[NMeA]NPHE[Hyp][Bta]AW[NMeNle][NMeNle][Dab]CG-NH2; thioether N-14), the IC50 in experiment [1] was over 0.0305 µM; in experiment [2] (setting [4]), over 0.0743 µM.

As for `CCCC[C@H]1C(=O)N(C)CC(=O)N[C@@H](CC(=O)O)C(=O)N[C@@H](C(C)C)C(=O)N[C@@H](Cc2ccccc2C)C(=O)N[C@@H](Cc2ccc(O)cc2)C(=O)N(C)CC(=O)N[C@@H](Cc2c[nH]c3ccccc23)C(=O)N[C@@H](Cc2ccc(O)cc2)C(=O)N[C@@H](CC(C)C)C(=O)N[C@H](C(=O)NCC(N)=O)CSCC(=O)N[C@@H](Cc2ccccc2)C(=O)N(C)[C@@H](Cc2ccccc2)C(=O)N1C` [Example 3133] ({CH2CO}-F[NMeF][NMeNle][Sar]DV[Phe(2-Me)]Y[Sar]WYLCG-NH2; thioether N-13), the IC50 in experiment [1] is over 0.0305 µM; in experiment [2] (setting [3]), over 0.0743 µM.
